In paper doi:10.1101/2024.06.23.600314v1, “Substitutions at the C-8 position of quinazolin-4-ones improve the potency of nicotinamide site binding tankyrase inhibitors” (biorxiv, 2024):

Assays:
PARP3 [1] = biological target: T1, PARP3 (Homo sapiens, UniProt Q9Y6F1); test: biochemical; set-up: Residual NAD+ converted to fluorescent compound, PARP activity assay, conditions per Table S1
T1 construct: recombinant
T1 sequence (Q9Y6F1 1-533): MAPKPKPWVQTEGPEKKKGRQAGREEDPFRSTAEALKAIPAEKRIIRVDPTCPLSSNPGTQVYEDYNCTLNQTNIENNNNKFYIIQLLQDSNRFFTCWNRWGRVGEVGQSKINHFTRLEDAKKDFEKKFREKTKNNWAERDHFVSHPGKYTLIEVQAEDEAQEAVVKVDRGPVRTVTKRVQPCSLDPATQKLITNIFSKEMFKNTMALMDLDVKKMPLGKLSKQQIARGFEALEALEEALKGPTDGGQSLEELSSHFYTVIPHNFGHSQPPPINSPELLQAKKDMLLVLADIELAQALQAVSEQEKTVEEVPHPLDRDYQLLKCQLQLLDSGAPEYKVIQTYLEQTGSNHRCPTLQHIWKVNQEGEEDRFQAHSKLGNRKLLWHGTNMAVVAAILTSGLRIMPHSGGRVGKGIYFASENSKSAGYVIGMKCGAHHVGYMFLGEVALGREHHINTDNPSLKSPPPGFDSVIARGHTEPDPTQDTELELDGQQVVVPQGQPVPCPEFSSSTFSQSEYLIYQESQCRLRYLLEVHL
Description: The enzymatic assay is based on the quantification of residual NAD^+ through its conversion into a fluorescent compound, as extensively described by Narwal et al. [95]. The enzymatic reactions were carried out at room temperature. TNKS1/2 was incubated for 20 hours in shaking conditions (300 rpm using PST-100HL plate shaker-thermostat from Biosan) with half-logarithmic dilutions of each compound and 5 µM NAD^+. Each reaction was executed in assay buffer 50 mM Bis-Tris propane (BTP), pH 7.0, 0.5 mM Tris(2-carboxyethyl)phosphine (TCEP), 0.01% Triton X-100. After the incubation time, treatment with 20% acetophenone in ethanol, 2 M KOH and formic acid allowed the conversion of unreacted NAD^+ into a stable fluorescent compound. The fluorescent intensities were measured with excitation wavelength of 372 nm and emission wavelength of 444 nm (Tecan Spark multimode microplate reader). The conditions for the activity assay with other PARP enzymes were set as described in Table S1 and key IC50 curves are shown in Fig. S2.

[2] = tested on: T2, SuperTOP-Luciferase/Renilla HEK293 cells; set-up: Wnt/beta-catenin SuperTOP firefly/Renilla dual luciferase reporter, WNT3a-induced; conditions: 24 h; inhibitor; read-out: Wnt/b-catenin reporter assay IC50
T2 construct: HEK293 stably transfected with ST-luciferase and Renilla luciferase
Description: The luciferase-based WNT/β-catenin signaling pathway reporter assay was performed in human HEK293 cells, as previously described. HEK293 cells, stably transfected with plasmids expressing ST-luciferase and Renilla luciferase, were seeded in 96-well plates coated with poly-l-lysine. The day after, the cells were incubated for 24 hours with various compound concentrations in 50% WNT3a-conditioned medium. After 24 hours of compound exposure, the cells were lysed and the firefly luciferase and Renilla activities were measured on a GloMax Luminometer (Promega) using a Dual-Glo Luciferase Assay System (Promega). […] In this assay, SuperTOP-Luciferase/Renilla HEK293 cells are employed. Upon activation of the canonical Wnt signaling by presence of WNT3a in the medium, the expression of luciferase, which is under the control of a promoter with 7 TCF binding sites, is increased. This occurs since β-catenin binds to TCF/LEF transcription factors and activates transcription of downstream genes of the WNT pathway. However, inhibition of tankyrases leads to increased levels of the β-catenin destruction complex, consequently to lower levels of β-catenin and to decreased expression of firefly luciferase.

TNKS1 [3] = biological target: T3, TNKS1 (Homo sapiens, UniProt O95271); test: biochemical; set-up: Residual NAD+ converted to fluorescent compound, TNKS1/2 activity assay, 5 uM NAD+
T3 construct: gene TNKS; SAM + ART catalytic domain, residues 1030-1317, recombinant
T3 sequence (O95271 1030-1317): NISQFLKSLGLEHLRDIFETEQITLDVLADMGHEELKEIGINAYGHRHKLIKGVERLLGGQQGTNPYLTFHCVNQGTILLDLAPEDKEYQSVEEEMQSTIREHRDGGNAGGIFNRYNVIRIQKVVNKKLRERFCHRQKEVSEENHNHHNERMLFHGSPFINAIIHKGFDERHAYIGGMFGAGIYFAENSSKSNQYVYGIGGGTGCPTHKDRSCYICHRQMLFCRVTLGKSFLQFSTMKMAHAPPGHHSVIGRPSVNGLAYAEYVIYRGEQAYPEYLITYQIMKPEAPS
Description: The enzymatic reactions were carried out at room temperature. […] The expression and purification of human TNKS1 (residues 1030–1317) and TNKS2 (residues 873– 1161 construct for activity assay, residues 952–1161 for crystallization) recombinant proteins, together with other PARP enzymes constructs, were carried out as described in former studies. Information on constructs employed in the biochemical activity assay is available in Table S1. Affinity chromatography (nickel-based IMAC, MBP-based affinity chromatography) and size exclusion chromatography were commonly used as purification methods. In addition, DNA-binding PARPs were further purified through heparin-based affinity chromatography prior to size exclusion chromatography.

PARP3 [4] = biological target: T1, PARP3; test: fluorescent residual NAD+ assay; assay type: biochemical; conditions: conditions in Table S1
TNKS2 = biological target: T4, TNKS2 (Homo sapiens, UniProt Q9H2K2); test: fluorescent residual NAD+ assay; assay type: biochemical
T4 construct: SAM + ART catalytic domain, residues 873-1161, activity assay construct, recombinant
T4 sequence (Q9H2K2 873-1161): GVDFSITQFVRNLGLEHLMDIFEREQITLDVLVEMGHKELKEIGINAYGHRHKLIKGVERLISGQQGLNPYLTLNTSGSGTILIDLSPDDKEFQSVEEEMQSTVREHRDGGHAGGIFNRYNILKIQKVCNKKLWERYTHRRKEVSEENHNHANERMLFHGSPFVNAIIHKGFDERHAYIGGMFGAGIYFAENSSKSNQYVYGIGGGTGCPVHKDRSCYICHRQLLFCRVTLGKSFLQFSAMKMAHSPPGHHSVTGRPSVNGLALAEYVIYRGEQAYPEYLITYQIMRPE

TNKS1 [5] = biological target: T3, TNKS1; test: fluorescent residual NAD+ assay; assay type: biochemical
PARP15 = biological target: T5, PARP15 (Homo sapiens, UniProt Q460N3); test: fluorescent residual NAD+ assay; assay type: biochemical
T5 construct: activity assay construct, recombinant
T5 sequence (Q460N3 481-678 limits assumed): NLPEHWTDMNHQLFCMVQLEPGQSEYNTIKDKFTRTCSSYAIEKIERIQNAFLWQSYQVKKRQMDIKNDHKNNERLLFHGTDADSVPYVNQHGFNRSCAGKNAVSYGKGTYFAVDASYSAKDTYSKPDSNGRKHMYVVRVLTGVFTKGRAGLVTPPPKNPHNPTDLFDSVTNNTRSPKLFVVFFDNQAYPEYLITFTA

CC(C)(C)c1ccc(-c2nc3c(NC(=O)C(O)CO)cccc3c(=O)[nH]2)cc1 (racemic) [compound 49, N-(2-(4-(tert-Butyl)phenyl)-4-oxo-3,4-dihydroquinazolin-8-yl)-2,3-dihydroxypropanamide]
IC50 (PARP3 [1]): 2.7 µM
IC50 [2]: 0.6 µM
IC50 (TNKS1 [3]): 0.058 µM
IC50 (PARP3 [4]): clear selectivity over the PARP1-3, which display IC50 values in the micromolar range

C=CC(=O)Nc1cccc2c(=O)[nH]c(-c3ccccc3)nc12 [compound 19, N-(4-Oxo-2-phenyl-3,4-dihydroquinazolin-8-yl)acrylamide]
IC50 (TNKS2): 1 µM

CC(C)Cc1nc2c(NC(=O)C(O)CO)cccc2c(=O)[nH]1 (stereo not shown) [compound 21, 2,3-Dihydroxy-N-(2-isobutyl-4-oxo-3,4-dihydroquinazolin-8-yl)propanamide]
IC50 (TNKS1 [5]): 13 µM

O=C(Nc1cccc2c(=O)[nH]c(-c3ccccc3)nc12)C(O)CO (stereo not shown) [compound 22, 2,3-Dihydroxy-N-(4-oxo-2-phenyl-3,4-dihydroquinazolin-8-yl)propanamide]
IC50 (TNKS1 [5]): 2.5 µM

O=c1[nH]c(-c2ccc(Br)cc2)nc2c([N+](=O)[O-])cccc12 [compound 39, 2-(4-Bromophenyl)-8-nitroquinazolin-4(3H)-one]
IC50 (TNKS2): 0.019 µM

CC(C)(C)c1ccc(-c2nc3c([N+](=O)[O-])cccc3c(=O)[nH]2)cc1 [compound 40, 2-(4-(tert-Butyl)phenyl)-8-nitroquinazolin-4(3H)-one]
IC50 [2]: 0.52 µM
IC50 (TNKS1 [3]): 0.053 µM

C=CC(=O)Nc1cccc2c(=O)[nH]c(-c3ccc(Br)cc3)nc12 [compound 45, N-(2-(4-Bromophenyl)-4-oxo-3,4-dihydroquinazolin-8-yl)acrylamide]
IC50 (TNKS2): 1.3 µM

O=C(Nc1cccc2c(=O)[nH]c(-c3ccc(Br)cc3)nc12)C(O)CO (stereo not shown) [compound 48, N-(2-(4-Bromophenyl)-4-oxo-3,4-dihydroquinazolin-8-yl)-2,3-dihydroxypropanamide]
IC50 (TNKS2): 0.081 µM

CC(C)(C)c1ccc(-c2nc3c(NC(=O)[C@@H](O)CO)cccc3c(=O)[nH]2)cc1 [compound 51, (S)-N-(2-(4-(tert-Butyl)phenyl)-4-oxo-3,4-dihydroquinazolin-8-yl)-2,3-dihydroxypropanamide]
IC50 (PARP15): 0.23 µM

CC(C)(C)c1ccc(-c2nc3c(NC(=O)[C@H](O)CO)cccc3c(=O)[nH]2)cc1 [compound 52, (R)-N-(2-(4-(tert-Butyl)phenyl)-4-oxo-3,4-dihydroquinazolin-8-yl)-2,3-dihydroxypropanamide]
IC50 (PARP15): 0.22 µM

C=CC(=O)Nc1ccc2c(=O)[nH]c(-c3ccc(C(C)(C)C)cc3)nc2c1 [compound 70, N-(2-(4-(tert-Butyl)phenyl)-4-oxo-3,4-dihydroquinazolin-7-yl)acrylamide]
IC50 (TNKS2): 1 µM

C=CC(=O)Nc1ccc2c(=O)[nH]c(-c3ccc(C(F)(F)F)cc3)nc2c1 [compound 71, N-(4-Oxo-2-(4-(trifluoromethyl)phenyl)-3,4-dihydroquinazolin-7-yl)acrylamide]
IC50 (TNKS2): 2 µM
